In ChEMBL document CHEMBL4602709 (ACS Med Chem Lett, 2020) one finds half-life, Activity and IC50 data, which are given here for two molecules.

The nature of data set [1]: Metabolic stability in mouse liver microsomes assessed as half life at 3 uM measured up to 30 mins in presence of NADPH by […] analysis. The class given is ADME, Microsome. (Liver microsomes are a subcellular fraction often used to study metabolism.)
The nature of data set [2]: Metabolic stability in human liver microsomes assessed as half life at 3 uM measured up to 30 mins in presence of NADPH by […] analysis. It counts as ADME, Microsome.
Data set [3] concerns the target Serine/threonine-protein kinase Nek6 (Homo sapiens, UniProt Q9HC98). Briefly: Inhibition of NEK6 (unknown origin) assessed as residual activity at 10 uM incubated for 5 mins in presence of [gamma-33ATP] by scintillation counting based radiometry assay relative to control.
Data set [4] deals with T1, Ephrin type-B receptor 2 (Homo sapiens) (UniProt P29323).
T1 sequence (whole entry): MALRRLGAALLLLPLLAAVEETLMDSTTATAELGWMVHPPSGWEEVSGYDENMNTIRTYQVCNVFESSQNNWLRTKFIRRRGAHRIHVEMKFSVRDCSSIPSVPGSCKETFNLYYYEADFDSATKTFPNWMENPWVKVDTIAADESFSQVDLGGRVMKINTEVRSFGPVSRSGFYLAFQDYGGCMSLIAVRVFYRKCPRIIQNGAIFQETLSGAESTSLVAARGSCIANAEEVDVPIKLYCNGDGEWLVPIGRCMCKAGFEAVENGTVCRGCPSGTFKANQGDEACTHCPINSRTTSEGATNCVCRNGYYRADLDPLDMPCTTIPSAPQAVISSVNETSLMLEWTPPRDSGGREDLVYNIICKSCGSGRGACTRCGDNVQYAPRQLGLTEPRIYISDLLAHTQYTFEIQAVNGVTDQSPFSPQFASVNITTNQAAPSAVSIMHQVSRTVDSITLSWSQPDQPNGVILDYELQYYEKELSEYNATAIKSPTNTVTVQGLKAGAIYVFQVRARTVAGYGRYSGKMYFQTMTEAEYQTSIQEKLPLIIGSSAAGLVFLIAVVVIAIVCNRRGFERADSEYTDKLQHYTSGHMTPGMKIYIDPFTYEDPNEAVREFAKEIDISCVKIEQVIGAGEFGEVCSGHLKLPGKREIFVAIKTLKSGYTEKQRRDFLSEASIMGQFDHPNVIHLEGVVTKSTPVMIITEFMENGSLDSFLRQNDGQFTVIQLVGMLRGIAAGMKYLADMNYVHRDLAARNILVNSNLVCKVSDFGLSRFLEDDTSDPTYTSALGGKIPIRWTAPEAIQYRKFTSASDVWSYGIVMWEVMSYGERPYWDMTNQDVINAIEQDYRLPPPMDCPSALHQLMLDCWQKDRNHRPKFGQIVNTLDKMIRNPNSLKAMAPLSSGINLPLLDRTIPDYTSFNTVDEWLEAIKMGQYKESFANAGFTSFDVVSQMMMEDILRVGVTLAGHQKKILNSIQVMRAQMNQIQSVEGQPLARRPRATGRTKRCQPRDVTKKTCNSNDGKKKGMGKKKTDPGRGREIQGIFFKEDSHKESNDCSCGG
The data set is described as follows: Inhibition of EPHB2 (unknown origin) assessed as residual activity at 10 uM incubated for 5 mins in presence of [gamma-33ATP] by scintillation counting based radiometry assay relative to control.

Data set [5] deals with T2, Tyrosine-protein kinase Lck (Homo sapiens, UniProt P06239). The data set is described as follows: Inhibition of LCK (unknown origin) assessed as residual activity at 10 uM incubated for 5 mins in presence of [gamma-33ATP] by scintillation counting based radiometry assay relative to control.
Target sequence in this assay (P06239 2-509 limits assumed): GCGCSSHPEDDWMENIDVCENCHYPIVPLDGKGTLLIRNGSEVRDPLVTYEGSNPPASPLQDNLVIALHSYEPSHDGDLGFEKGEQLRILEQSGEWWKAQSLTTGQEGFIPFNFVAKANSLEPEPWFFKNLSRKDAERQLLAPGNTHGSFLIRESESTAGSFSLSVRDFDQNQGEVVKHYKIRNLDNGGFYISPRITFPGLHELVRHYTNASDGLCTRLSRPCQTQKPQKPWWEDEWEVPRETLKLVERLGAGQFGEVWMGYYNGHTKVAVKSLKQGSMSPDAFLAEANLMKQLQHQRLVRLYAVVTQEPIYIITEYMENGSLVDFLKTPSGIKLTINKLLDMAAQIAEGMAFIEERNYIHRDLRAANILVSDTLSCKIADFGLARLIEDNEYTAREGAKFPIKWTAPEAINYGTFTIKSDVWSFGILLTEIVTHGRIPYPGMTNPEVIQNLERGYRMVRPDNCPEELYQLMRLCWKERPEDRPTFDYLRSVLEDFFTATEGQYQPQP
In data set [6] the target is Proto-oncogene tyrosine-protein kinase Src (Homo sapiens, UniProt P12931). Briefly: Inhibition of SRC (unknown origin) assessed as residual activity at 10 uM incubated for 5 mins in presence of [gamma-33ATP] by scintillation counting based radiometry assay relative to control.
Chain of Proto-oncogene tyrosine-protein kinase Src (P12931 2-536 limits assumed): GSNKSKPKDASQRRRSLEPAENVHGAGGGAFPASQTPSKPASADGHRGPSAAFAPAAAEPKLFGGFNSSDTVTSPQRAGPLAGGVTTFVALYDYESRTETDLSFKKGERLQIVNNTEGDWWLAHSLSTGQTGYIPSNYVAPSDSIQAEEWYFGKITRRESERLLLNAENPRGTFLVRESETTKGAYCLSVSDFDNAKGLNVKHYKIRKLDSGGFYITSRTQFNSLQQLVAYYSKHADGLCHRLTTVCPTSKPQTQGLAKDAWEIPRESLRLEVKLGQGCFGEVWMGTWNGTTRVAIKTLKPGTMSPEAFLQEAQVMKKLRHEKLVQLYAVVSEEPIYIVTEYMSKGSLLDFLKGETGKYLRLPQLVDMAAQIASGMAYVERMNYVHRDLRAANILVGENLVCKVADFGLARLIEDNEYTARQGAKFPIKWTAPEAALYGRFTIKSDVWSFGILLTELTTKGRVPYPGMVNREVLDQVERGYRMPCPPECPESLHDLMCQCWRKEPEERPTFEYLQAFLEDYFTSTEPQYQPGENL
Data set [7] has as its target Tyrosine-protein kinase ABL1 (Homo sapiens, UniProt P00519). Briefly: Inhibition of ABL1 (unknown origin) assessed as residual activity incubated for 5 mins in presence of [gamma-33ATP] by scintillation counting based radiometry assay.
The target in a further data set is T3, Ephrin type-B receptor 2 (Homo sapiens, UniProt P29323).
T3 sequence (P29323 whole entry): T1 sequence (whole entry)
The data set is described as follows: Inhibition of EPHB2 (unknown origin) assessed as residual activity incubated for 5 mins in presence of [gamma-33ATP] by scintillation counting based radiometry assay.

The target in data set [8] is Voltage-gated inwardly rectifying potassium channel KCNH2 (Homo sapiens, UniProt Q12809). The data set is described as follows: Inhibition of human ERG incubated for 4 hrs by competitive fluorescence tracer binding based assay.
Chain of Voltage-gated inwardly rectifying potassium channel KCNH2 (Q12809 whole entry): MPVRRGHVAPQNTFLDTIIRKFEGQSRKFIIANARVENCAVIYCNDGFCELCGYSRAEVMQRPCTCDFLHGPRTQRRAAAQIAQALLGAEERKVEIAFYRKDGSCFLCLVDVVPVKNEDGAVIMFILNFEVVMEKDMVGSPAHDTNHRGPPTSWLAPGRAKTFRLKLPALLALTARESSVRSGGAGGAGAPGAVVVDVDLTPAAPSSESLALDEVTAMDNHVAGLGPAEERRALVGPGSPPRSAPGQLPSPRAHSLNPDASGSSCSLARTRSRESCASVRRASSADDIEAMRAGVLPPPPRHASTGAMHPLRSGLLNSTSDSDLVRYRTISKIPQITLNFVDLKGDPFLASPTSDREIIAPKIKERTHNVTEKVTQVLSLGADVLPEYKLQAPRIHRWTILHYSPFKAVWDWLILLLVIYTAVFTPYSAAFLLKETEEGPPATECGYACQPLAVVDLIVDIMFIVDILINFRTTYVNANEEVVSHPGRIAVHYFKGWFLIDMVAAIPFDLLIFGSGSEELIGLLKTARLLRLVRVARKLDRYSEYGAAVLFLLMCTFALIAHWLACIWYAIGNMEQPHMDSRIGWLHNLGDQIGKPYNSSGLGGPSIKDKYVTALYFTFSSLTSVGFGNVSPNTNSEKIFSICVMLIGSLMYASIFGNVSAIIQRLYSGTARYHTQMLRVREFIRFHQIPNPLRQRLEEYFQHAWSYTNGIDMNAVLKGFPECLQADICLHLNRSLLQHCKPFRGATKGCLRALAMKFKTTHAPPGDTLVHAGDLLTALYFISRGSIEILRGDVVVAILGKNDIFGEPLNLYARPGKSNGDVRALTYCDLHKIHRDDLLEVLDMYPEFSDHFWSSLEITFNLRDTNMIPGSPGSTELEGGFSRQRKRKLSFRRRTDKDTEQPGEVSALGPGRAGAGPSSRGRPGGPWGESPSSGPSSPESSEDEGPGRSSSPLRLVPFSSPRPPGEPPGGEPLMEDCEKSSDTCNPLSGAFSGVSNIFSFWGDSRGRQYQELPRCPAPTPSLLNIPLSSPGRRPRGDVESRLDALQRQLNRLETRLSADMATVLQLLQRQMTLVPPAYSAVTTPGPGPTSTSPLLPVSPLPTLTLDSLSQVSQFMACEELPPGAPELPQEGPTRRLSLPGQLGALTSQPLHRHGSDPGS
Data set [9] has as its target T2, Tyrosine-protein kinase Lck. Briefly: Inhibition of LCK (unknown origin) assessed as residual activity incubated for 5 mins in presence of [gamma-33ATP] by scintillation counting based radiometry assay.
Target sequence in this assay (P06239 whole entry): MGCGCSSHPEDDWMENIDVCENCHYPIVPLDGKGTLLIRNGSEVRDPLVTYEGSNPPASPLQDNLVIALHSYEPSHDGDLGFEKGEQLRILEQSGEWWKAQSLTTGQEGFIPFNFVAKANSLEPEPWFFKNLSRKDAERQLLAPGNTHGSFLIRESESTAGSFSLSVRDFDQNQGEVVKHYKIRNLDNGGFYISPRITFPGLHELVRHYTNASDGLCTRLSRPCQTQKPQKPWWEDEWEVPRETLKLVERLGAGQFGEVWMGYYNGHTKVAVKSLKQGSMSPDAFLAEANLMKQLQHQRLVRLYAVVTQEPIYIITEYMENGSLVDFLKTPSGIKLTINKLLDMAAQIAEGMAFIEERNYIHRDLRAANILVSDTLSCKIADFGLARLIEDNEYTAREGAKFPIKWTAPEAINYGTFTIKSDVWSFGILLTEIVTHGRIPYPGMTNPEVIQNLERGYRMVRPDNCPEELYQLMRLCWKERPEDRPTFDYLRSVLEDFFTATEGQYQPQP
Another data set concerns the target T4, Ephrin type-B receptor 3 (Homo sapiens, UniProt P54753).
T4 sequence (P54753 whole entry): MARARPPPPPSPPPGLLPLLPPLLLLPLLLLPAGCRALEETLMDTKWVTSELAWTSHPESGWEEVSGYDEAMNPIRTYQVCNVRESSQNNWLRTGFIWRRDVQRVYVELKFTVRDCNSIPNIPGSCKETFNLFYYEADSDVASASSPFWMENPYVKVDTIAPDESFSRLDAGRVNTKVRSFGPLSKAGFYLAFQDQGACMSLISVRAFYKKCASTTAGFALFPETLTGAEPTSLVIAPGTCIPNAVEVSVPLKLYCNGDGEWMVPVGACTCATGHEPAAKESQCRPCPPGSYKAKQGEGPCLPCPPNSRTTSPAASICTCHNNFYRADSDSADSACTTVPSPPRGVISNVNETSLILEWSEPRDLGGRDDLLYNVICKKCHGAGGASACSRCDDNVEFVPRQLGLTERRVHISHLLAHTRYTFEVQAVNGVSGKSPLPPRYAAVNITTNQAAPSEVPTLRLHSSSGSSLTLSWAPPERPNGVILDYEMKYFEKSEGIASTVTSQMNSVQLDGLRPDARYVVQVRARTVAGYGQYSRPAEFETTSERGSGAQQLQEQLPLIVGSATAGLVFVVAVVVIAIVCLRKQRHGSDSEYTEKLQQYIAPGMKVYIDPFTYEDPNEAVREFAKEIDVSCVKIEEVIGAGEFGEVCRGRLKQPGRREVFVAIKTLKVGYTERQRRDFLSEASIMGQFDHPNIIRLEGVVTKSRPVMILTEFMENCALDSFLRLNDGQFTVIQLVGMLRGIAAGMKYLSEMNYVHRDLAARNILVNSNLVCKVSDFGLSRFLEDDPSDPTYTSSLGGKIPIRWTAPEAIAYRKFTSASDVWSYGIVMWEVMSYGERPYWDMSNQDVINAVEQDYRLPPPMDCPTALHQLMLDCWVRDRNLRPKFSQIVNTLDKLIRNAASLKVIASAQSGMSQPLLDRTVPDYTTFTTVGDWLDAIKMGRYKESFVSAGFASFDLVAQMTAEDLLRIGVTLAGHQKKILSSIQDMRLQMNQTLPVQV
Briefly: Inhibition of EPHB3 (unknown origin) assessed as residual activity incubated for 5 mins in presence of [gamma-33ATP] by scintillation counting based radiometry assay.

Data set [10] is described as follows: Inhibition of VEGFR (unknown origin) assessed as residual activity incubated for 5 mins in presence of [gamma-33ATP] by scintillation counting based radiometry assay. Further details: species or system Homo sapiens.

Chain of Serine/threonine-protein kinase Nek6 (Q9HC98 whole entry): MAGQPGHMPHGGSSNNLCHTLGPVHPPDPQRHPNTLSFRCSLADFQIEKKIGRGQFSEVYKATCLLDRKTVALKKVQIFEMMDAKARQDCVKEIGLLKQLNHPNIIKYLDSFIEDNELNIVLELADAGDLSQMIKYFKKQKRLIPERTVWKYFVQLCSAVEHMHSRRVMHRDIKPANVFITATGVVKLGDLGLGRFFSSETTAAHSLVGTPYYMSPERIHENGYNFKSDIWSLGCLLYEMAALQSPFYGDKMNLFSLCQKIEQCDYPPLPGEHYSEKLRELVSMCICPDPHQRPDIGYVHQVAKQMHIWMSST
Chain of Tyrosine-protein kinase ABL1 (P00519 whole entry): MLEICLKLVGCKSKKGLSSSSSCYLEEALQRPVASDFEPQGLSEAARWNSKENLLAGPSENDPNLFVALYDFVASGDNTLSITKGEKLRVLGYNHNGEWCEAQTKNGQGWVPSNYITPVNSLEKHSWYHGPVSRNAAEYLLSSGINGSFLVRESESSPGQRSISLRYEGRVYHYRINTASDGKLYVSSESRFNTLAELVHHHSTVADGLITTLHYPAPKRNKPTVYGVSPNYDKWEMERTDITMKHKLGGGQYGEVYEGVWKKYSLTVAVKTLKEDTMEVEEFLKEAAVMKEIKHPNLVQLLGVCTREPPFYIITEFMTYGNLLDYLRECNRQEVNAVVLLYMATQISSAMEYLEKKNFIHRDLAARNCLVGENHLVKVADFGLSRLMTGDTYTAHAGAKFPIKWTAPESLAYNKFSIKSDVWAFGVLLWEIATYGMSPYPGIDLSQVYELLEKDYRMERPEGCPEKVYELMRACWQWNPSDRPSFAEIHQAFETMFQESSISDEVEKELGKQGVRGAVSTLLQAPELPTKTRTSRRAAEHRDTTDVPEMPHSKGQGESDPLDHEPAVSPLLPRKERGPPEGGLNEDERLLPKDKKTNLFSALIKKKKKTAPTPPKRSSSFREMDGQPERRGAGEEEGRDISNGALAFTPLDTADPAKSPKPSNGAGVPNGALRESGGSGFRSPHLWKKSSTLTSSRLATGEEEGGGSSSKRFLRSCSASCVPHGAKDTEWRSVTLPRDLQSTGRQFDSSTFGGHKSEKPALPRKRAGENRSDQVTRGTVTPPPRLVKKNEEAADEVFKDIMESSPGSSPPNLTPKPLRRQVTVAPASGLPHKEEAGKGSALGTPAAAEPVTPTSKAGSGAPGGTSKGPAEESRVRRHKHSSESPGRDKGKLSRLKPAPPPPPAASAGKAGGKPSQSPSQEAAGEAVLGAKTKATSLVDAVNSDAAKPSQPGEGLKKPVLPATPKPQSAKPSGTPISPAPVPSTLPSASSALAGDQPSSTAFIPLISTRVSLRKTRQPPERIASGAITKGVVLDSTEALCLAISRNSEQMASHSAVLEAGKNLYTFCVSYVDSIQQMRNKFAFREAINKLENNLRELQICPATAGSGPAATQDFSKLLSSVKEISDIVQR

Consider `Cc1cn(-c2cc(NC(=O)c3ccc(C)c(Nc4nccc(-c5cccnc5)n4)c3)cc(C(F)(F)F)c2)cn1` [NILOTINIB], for which the half-life at 3 µM in data set [1] and in [2] was 7.89 min in each case. In addition, the Activity was determined as 97% in data set [3], 25% in data set [4], 37% in [5] and 74% in data set [6].
Take `Cc1ccc(C(=O)Nc2ccc(CN3Cc4cn[nH]c4C3)c(Cl)c2)cc1C#Cc1cnc2cccnn12`: the results for the half-life at 3 µM in data set [1] and in data set [2] were 16.8 min and 39.8 min, respectively. In addition, the IC50 (usually the concentration needed to halve the response being measured) worked out at 1.3 nM in [7]; 70.8 nM at Ephrin type-B receptor 2; 12.1 µM in data set [8]; 26.1 nM in data set [9]; 19.5 nM on Ephrin type-B receptor 3; 44.8 nM in data set [10]. In addition, the Activity in data set [3] came out at 9%; in data set [4], 1%; in data set [5], 17%; in data set [6] it was 15%.
